Results from ChEMBL document CHEMBL1201862, “PubChem BioAssay data set” (2004).
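Test compounds were applied to cells in 96-well plates for 48 hours at 5 doses. GI50 marks 50% less growth.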 The source made the active and inactive calls. Cut-off read from the data, not from the text of the source: active = GI50 up to about 1.1 µM and inactive = higher.

Experiments:
Test in all cases: inhibition of tumour cell growth, NCI panel, 48 h
[1] = test system: SK-MEL-5
[2] = test system: OVCAR-5
[3] = test system: NCI-H23
[4] = test system: SNB-19
[5] = test system: SK-OV-3
[6] = test system: KM12
[7] = test system: MDA-MB-435
[8] = test system: SN12C
[9] = test system: TK-10
[10] = test system: SK-MEL-2
[11] = test system: A549
[12] = test system: CAKI-1
[13] = test system: SF-295
[14] = test system: MCF7
[15] = test system: CCRF-CEM
[16] = test system: MOLT-4
[17] = test system: SF-268
[18] = test system: Hs-578T
[19] = test system: Malme-3M
[20] = test system: M14

Row | SMILES | GI50 [1] | GI50 [2] | GI50 [3] | GI50 [4] | GI50 [5] | GI50 [6] | GI50 [7] | GI50 [8] | GI50 [9] | GI50 [10] | GI50 [11] | GI50 [12] | GI50 [13] | GI50 [14] | GI50 [15] | GI50 [16] | GI50 [17] | GI50 [18] | GI50 [19] | GI50 [20]
1 | C[N+]1([O-])C2CCC1CC(OC(=O)C(CO)c1ccccc1)C2 (stereo unspecified) | > 100 µM (inactive) | > 100 µM (inactive) | > 33.8 µM (inactive) | > 100 µM (inactive) | > 100 µM (inactive) | > 100 µM (inactive) | > 100 µM (inactive) | > 81.7 µM (inactive) | > 100 µM (inactive) | > 100 µM (inactive) | > 100 µM (inactive) | > 100 µM (inactive) | > 100 µM (inactive) | > 100 µM (inactive) | > 100 µM (inactive) | > 100 µM (inactive) | > 100 µM (inactive) | > 100 µM (inactive) | > 100 µM (inactive) | > 100 µM (inactive)
2 | COC(=O)C1=C(OC(=O)/C(=C/c2ccccc2)c2ccccc2)C(C(=O)OC)[C@@]2(O)[C@@H](C(=O)OC)[C@H](C)C[C@@H]1[C@@H]2C(=O)OC (stereo partly specified) | > 100 µM (inactive) | > 100 µM (inactive) | > 100 µM (inactive) | > 100 µM (inactive) | > 100 µM (inactive) | > 100 µM (inactive) | > 100 µM (inactive) | > 100 µM (inactive) | > 100 µM (inactive) | > 100 µM (inactive) | > 100 µM (inactive) | > 100 µM (inactive) | 69.7 µM (inactive) | > 100 µM (inactive) | > 100 µM (inactive) | – | > 100 µM (inactive) | > 100 µM (inactive) | > 100 µM (inactive) | > 100 µM (inactive)
3 | COc1ccc(-c2c(C#N)c(O)n(NS(=O)(=O)c3ccc(C)cc3)c(=O)c2C#N)cc1 | 42.1 µM (inactive) | > 100 µM (inactive) | – | 83.2 µM (inactive) | > 100 µM (inactive) | > 100 µM (inactive) | 75 µM (inactive) | > 100 µM (inactive) | 79.3 µM (inactive) | > 100 µM (inactive) | 91.8 µM (inactive) | > 100 µM (inactive) | 75 µM (inactive) | 48.6 µM (inactive) | 33.4 µM (inactive) | 20.5 µM (inactive) | > 100 µM (inactive) | > 100 µM (inactive) | 70.6 µM (inactive) | > 100 µM (inactive)
4 | COC(=O)C(/C(=N/N)C(=O)Nc1cc(Cl)c(Cl)cc1Cl)c1nc2ccc(Cl)cc2nc1O (stereo unspecified) | > 100 µM (inactive) | > 100 µM (inactive) | > 100 µM (inactive) | – | > 100 µM (inactive) | > 100 µM (inactive) | > 100 µM (inactive) | > 100 µM (inactive) | > 100 µM (inactive) | > 100 µM (inactive) | > 100 µM (inactive) | > 100 µM (inactive) | > 100 µM (inactive) | > 100 µM (inactive) | > 10 µM (inactive) | 0.0515 µM (active) | > 100 µM (inactive) | > 100 µM (inactive) | > 100 µM (inactive) | > 100 µM (inactive)
5 | C/C=C/C(C#N)(/C=C/c1ccccc1)OP1(=O)OC(c2ccccc2)C(C)N1C (stereo unspecified) | 16.9 µM (inactive) | 20.1 µM (inactive) | – | 20.7 µM (inactive) | 25.8 µM (inactive) | 19 µM (inactive) | 18.2 µM (inactive) | 19.2 µM (inactive) | 19.9 µM (inactive) | 18.6 µM (inactive) | 20 µM (inactive) | 23.3 µM (inactive) | 16.3 µM (inactive) | 22.8 µM (inactive) | 11 µM (inactive) | 10.9 µM (inactive) | 19.6 µM (inactive) | 22.4 µM (inactive) | 18.9 µM (inactive) | 20 µM (inactive)
